Reference: publication PMC6197077 (Frontiers in Immunology, 2018)
“And” between values parts separate entries of the source, which are not always exact repeats. Equal entries are not always repeated. “Also recorded” adds a separate entry of the source. Where two headings read alike, the source gives them in different places.

Legend:
polyclonal CD8+ T cells [1] = type: cell-based, mice; settings: for Nur77 MFI: polyclonal CD8 T cells, 1 uM (Figure 6F)
P14 CD8+ T cells [2] = type: cell-based, mice; settings: for IRF4 MFI at low peptide doses: P14 CD8+ T cells (Figure 4H)
polyclonal CD8+ T cells [3] = type: cell-based, mice
P14 TCR = settings: cited from earlier work; for Kd: SPR
[4] = system: P14 TCR with CD8 coreceptor (TCR:pMHC:CD8); type: binding, mice; settings: for peak bond lifetime under force, CD8-intact: BFP force-clamp, CD8-intact pMHC, peak of force curve, >1,000 bond lifetimes per curve; for bond lifetime at ~10 pN, CD8-intact: ~10 pN of force, CD8-intact (Figures 3F,G)
[5] = system: TCR and CD8 of naïve P14 CD8+ T cells (TCR:pMHC:CD8, D^b); type: binding, mice; settings: for normalized adhesion bonds, mean bond number (-ln(1-Pa(s))/mpMHC): P14 CD8+ T cells, wild type (CD8-intact) pMHC monomers, 3 individual experiments; for total bond number hierarchy: single P14 T cell probed against all three pMHC (Figure 2B)
MHC class I (D^b) = settings: terminal cysteine; ref [27], [34]-[36]; cited from earlier work
[6] = system: TCR of naïve P14 CD8+ T cells (TCR:pMHC, H2D^b); type: binding, mice; settings: for mean population 2D affinity (AcKa): naïve CD8+ P14 splenocytes, 50 contact cycles per cell, 3 individual experiments; for 2D affinity, result in words: naïve P14 CD8+ T cells
[7] = terminal cysteine; ref [27], [34]-[36]; cited from earlier work
P14 CD8+ T cells [8] = type: cell-based, mice
[9] = system: P14 TCR (TCR:pMHC, D^b D227K); type: binding, mice; settings: for peak bond lifetime under force, CD8-null: BFP force-clamp, absence of CD8 (CD8-null pMHC), peak of force curve, >1,000 bond lifetimes per curve; for bond lifetime by BFP for the TCR alone: restated range in Discussion; for bond lifetime at ~10 pN, CD8-null: ~10 pN of force, CD8-null (Figures 3D,E)
P14 CD8+ T cells [10] = type: cell-based, mice; settings: for %Nur77+: representative of 3 experiments, n = 3-4 mice; for signal strength as measured by Nur77 upregulation: P14 CD8 T cells re-stimulated ex vivo; for ligand potency: at equivalent peptide doses, not factoring in peptide loading
pMHC (T-2D^b cell line) = settings: competition on T-2D^b cell line; versus 9-mer 41C; ref [8] Gairin et al.; cited from earlier work
From the text: (§1) The question is to what extent loading of MHC affects the T cell response and their biology.

[11] = system: T cells interacting with dendritic cells; settings: peptide pulsed DCs, lymph node; versus 41C; ref Henrickson et al. [36]; cited from earlier work
From the text: as §1

[12] = Boulter et al., ref [52], read-out: 3D affinity (as restated in Discussion)
[13] = P14 CD8+ T cells, D8 p.i., range of peptide doses

Row | Sequence | Nur77 MFI (polyclonal CD8+ T cells [1]) | IRF4 MFI at low peptide doses (P14 CD8+ T cells [2]) | Kd (P14 TCR; [12]) [µM] | bond lifetime by SPR (P14 TCR; ref [51]) | peak bond lifetime under force, CD8-intact [4] | bond lifetime at ~10 pN, CD8-intact [4] | normalized adhesion bonds, mean bond number (-ln(1-Pa(s))/mpMHC) [5] [μm^2] | total bond number hierarchy [5] [M> 41C> 41CGI] | mean population 2D affinity (AcKa) [6] [μm^4] | peak bond lifetime under force, CD8-null [9] | bond lifetime by BFP for the TCR alone [9] [s] | bond lifetime at ~10 pN, CD8-null [9] | %Nur77+ (P14 CD8+ T cells [10]; [13]) | signal strength as measured by Nur77 upregulation (P14 CD8+ T cells [10]) | ligand potency (P14 CD8+ T cells [10]) [M > 41C > 41CGI] | 2D affinity, result in words [6] | other results
1 | KAVYNFATC [41C] | not significantly different | difference in IRF4 MFI | 2.3 | ~ 0.5 s | ~ 1.9 s | no significant difference in bond lifetime between 41M and 41C | 1.01E-01 | 41 | 6.62E-04 | ~ 0.9 s | 0.8 to 0.9 | longer bond lifetime than 41M and dramatically more so than 41CGI; also recorded: no significant difference in bond lifetime between 41M and 41C | significantly higher frequencies of Nur77+ CD8+ T cells than those stimulated with 41CGI | significantly stronger signals than 41CGI stimulated cells | 41 | – | IRF4 MFI at highest peptide dose (P14 CD8+ T cells [2]; 1 uM peptide, P14 CD8+ T cells, 41C versus 41CGI): did not observe a difference between 41C and 41CGI; IRF4 expression (polyclonal CD8+ T cells [3]; polyclonal CD8 T cells, 1 uM, 41M versus 41C (Figures 6E-I)): only a slight difference between 41M and 41C; stability in the MHC (MHC class I (D^b)): decreased stability in the MHC; peptide dimer formation [7]: form peptide dimers; sensitivity to antigen (P14 CD8+ T cells [8]; 41M versus 41C, in our experiments): same sensitivity to antigen; functional responses read out by Nur77, IFNγ and IL-2 (P14 CD8+ T cells [8]; Discussion): larger responses
2 | KAVYNFATCGI [41CGI] | not significantly different | difference in IRF4 MFI | 3.5 | – | ~ 1.5 s | – | 2.93E-02 | 41 | 1.55E-04 | ~ 0.1 s | – | – | – | – | 41 | lowest 2D affinity of the three, it still had a relatively high 2D affinity | IRF4 MFI at highest peptide dose (P14 CD8+ T cells [2]): did not observe a difference between 41C and 41CGI; fold increase of peak bond lifetime by CD8 contribution ([4]; CD8-intact versus CD8-null pMHC): 15 fold and ~ 15 fold; cytokine production (P14 CD8+ T cells [8]): significantly diminished cytokine production; efficiency at competing for pMHC (pMHC (T-2D^b cell line)): six times more efficient
3 | KAVYNFATM [41M] | – | difference in IRF4 MFI | – | ~ 0.5 s | ~ 3.0 s | no significant difference in bond lifetime between 41M and 41C | 6.40E-01 | 41 | 1.04E-03 | ~ 0.8 s | 0.8 to 0.9 | no significant difference in bond lifetime between 41M and 41C | higher percentage of CD8+ T cells re-stimulated with 41M expressed Nur77 | stronger signal than 41C; also recorded: significantly stronger signals than 41CGI stimulated cells | 41 | highest 2D affinity | frequency of Nur77 expression (polyclonal CD8+ T cells [1]): increased frequencies of Nur77 expression; IRF4 expression (polyclonal CD8+ T cells [3]): only a slight difference between 41M and 41C; Kd (P14 TCR; ref [50], read-out: KD (3D affinity, SPR)): 17 µM; Kd (P14 TCR; ref [51], read-out: KD (3D affinity, SPR)): 9.1 µM; Kd (P14 TCR; ref [52], read-out: KD (3D affinity, SPR)): 2.3 µM; double producers of IFNγ and TNF (P14 CD8+ T cells [8]): significantly higher frequency; sensitivity to antigen (P14 CD8+ T cells [8]): same sensitivity to antigen; triple producers of IFNγ, TNF and IL-2 (P14 CD8+ T cells [8]): significantly higher frequency; IFNγ production (P14 CD8+ T cells [8]; P14 cells, range of peptide doses, 6 h ex vivo (Figures 5A,B)): produced the most IFNγ; agonist classification (P14 CD8+ T cells [8]; by 2D affinity measures and functionality): super agonist peptide variant; transition to phase two T cell:DC contacts [11]: transitioned more quickly to phase two; peptide dose at which Nur77 MFI peaks (P14 CD8+ T cells [10]; P14 CD8+ T cells re-stimulated ex vivo): 0.31 µM; Nur77 MFI (P14 CD8+ T cells [10]; [13]): higher MFI (peaking at 0.31 uM) than 41C and dramatically more so than 41CGI
